What was measured:
AR / CBP ternary complex = assay: Ternary complex formation assay (sandwich ELISA, AR capture / CBP detection) in VCaP cell lysates; format: cell-based; settings: 1.5 hours treatment, sandwich ELISA (AR capture, CBP or p300 detection)
Procedure, shortened: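 Anti-AR (AR 441)-coated plates capture AR from lysates of VCaP cells grown ≥3 days at 50K/well in 5% charcoal-stripped FBS, dosed with bifunctional for 1.5 h and lysed 30 min at 4 °C. Co-captured CBP/p300 is probed with rabbit mAb and HRP anti-rabbit, then QuantaRed fluorescence (570/585) is read at 0, 5 and 15 min.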

VCaP cells = assay: VCaP growth inhibition assay; format: cell-based; settings: 30 pM R1881, 9 days, CTG
Procedure, shortened: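 Growth read by CTG luminescence after 9-day exposure to compound (final 100 nM–10 fM, 1:5 steps) plus 30 pM R1881, in phenol red-free DMEM with 5% CSS. Cells pre-incubated 72 h before dosing; IC50 by nonlinear 4-parameter regression.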

SMILES	EC50 (AR / CBP ternary complex) [nM]	IC50 (VCaP cells) [nM]
CC(=O)N1CCc2c(c(N3CCCc4cc(-c5cnn(C)c5)c(C(F)F)cc43)nn2CC2CCN(c3ncc(C(=O)NC4C(C)(C)C(Oc5ccc(C#N)c(Cl)c5)C4(C)C)cn3)CC2)C1 (stereo not shown) [Compound 53, 2-[4-[[5-acetyl-3-[7-(difluoromethyl)-6-(1-methylpyrazol-4-yl)-3,4-dihydro-2H-quinolin-1-yl]-6,7-dihydro-4H-pyrazolo[4,3-c]pyridin-1-yl]methyl]-1-piperidyl]-N-[3-(3-chloro-4-cyano-phenoxy)-2,2,4,4-tetramethyl-cyclobutyl]pyrimidine-5-carboxamide]	< 1	> 100
C[C@@H]1CC(=O)Nc2cccc(-c3ccc4c(c3)c(-c3cnn(C)c3)nn4CCCN3CCN(c4ncc(C(=O)NC5C(C)(C)C(Oc6ccc(C#N)c(Cl)c6)C5(C)C)cn4)CC3)c2N1 (stereo partly drawn) [Compound 55, N-[3-(3-chloro-4-cyano-phenoxy)-2,2,4,4-tetramethyl-cyclobutyl]-2-[4-[3-[5-[(4R)-4-methyl-2-oxo-1,3,4,5-tetrahydro-1,5-benzodiazepin-6-yl]-3-(1-methylpyrazol-4-yl)indazol-1-yl]propyl]piperazin-1-yl]pyrimidine-5-carboxamide]	> 100	> 100
CC(=O)N1CCc2c(c(N3CCCc4cc(-c5cnn(C)c5)c(C(F)F)cc43)nn2C2CC3(C2)CN(C(=O)C2CC4(C2)CN(c2ncc(C(=O)NC5C(C)(C)C(Oc6ccc(C#N)c(Cl)c6)C5(C)C)cn2)C4)C3)C1 (stereo not shown) [Compound 217, 2-[6-[6-[5-acetyl-3-[7-(difluoromethyl)-6-(1-methylpyrazol-4-yl)-3,4-dihydro-2H-quinolin-1-yl]-6,7-dihydro-4H-pyrazolo[4,3-c]pyridin-1-yl]-2-azaspiro[3.3]heptane-2-carbonyl]-2-azaspiro[3.3]heptan-2-yl]-N-[3-(3-chloro-4-cyano-phenoxy)-2,2,4,4-tetramethyl-cyclobutyl]pyrimidine-5-carboxamide]	< 1	0.1 to 1
CN1C(=O)CCc2cc(N3CCCc4cc(-c5ccc(CCC6CCN(c7ncc(C(=O)NC8C(C)(C)C(Oc9ccc(C#N)c(Cl)c9)C8(C)C)cn7)CC6)nc5)c(C(F)F)cc43)ccc21 (stereo not shown) [Compound 239, N-[3-(3-chloro-4-cyano-phenoxy)-2,2,4,4-tetramethyl-cyclobutyl]-2-[4-[2-[5-[7-(difluoromethyl)-1-(1-methyl-2-oxo-3,4-dihydroquinolin-6-yl)-3,4-dihydro-2H-quinolin-6-yl]-2-pyridyl]ethyl]-1-piperidyl]pyrimidine-5-carboxamide]	< 1	1 to 100
CC(=O)N1CCc2c(c(N3CCCc4cc(-c5cnn(C)c5)c(C(F)F)cc43)nn2C2CCN(CC3C(C)CN(c4ncc(C(=O)NC5C(C)(C)C(Oc6ccc(C#N)c(C)c6)C5(C)C)cn4)CC3C)CC2)C1 (stereo not shown) [Compound 462, 2-[4-[[4-[5-acetyl-3-[7-(difluoromethyl)-6-(1-methylpyrazol-4-yl)-3,4-dihydro-2H-quinolin-1-yl]-6,7-dihydro-4H-pyrazolo[4,3-c]pyridin-1-yl]-1-piperidyl]methyl]-3,5-dimethyl-1-piperidyl]-N-[3-(4-cyano-3-methyl-phenoxy)-2,2,4,4-tetramethyl-cyclobutyl]pyrimidine-5-carboxamide]	< 1	≤ 0.1
CC(=O)N1CCc2c(c(N3CCCc4cc(-c5cnn(C)c5)c(C(F)F)cc43)nn2C2CCN(CC#CCCc3ncc(C(=O)NC4C(C)(C)C(Oc5ccc(C#N)c(Cl)c5)C4(C)C)cn3)CC2)C1 (stereo not shown) [Compound 18, 2-[5-[4-[5-acetyl-3-[7-(difluoromethyl)-6-(1-methylpyrazol-4-yl)-3,4-dihydro-2H-quinolin-1-yl]-6,7-dihydro-4H-pyrazolo[4,3-c]pyridin-1-yl]-1-piperidyl]pent-3-ynyl]-N-[3-(3-chloro-4-cyano-phenoxy)-2,2,4,4-tetramethyl-cyclobutyl]pyrimidine-5-carboxamide]	< 1	0.1 to 1
CC(=O)N1CCc2c(c(N3CCCc4ccc(C(F)F)cc43)nn2C2CCN(CC3CCN(c4ncc(C(=O)NC5C(C)(C)C(Oc6ccc(C#N)c(Cl)c6)C5(C)C)cn4)CC3)CC2)C1 (stereo not shown) [Compound 150, 2-[4-[[4-[5-acetyl-3-[7-(difluoromethyl)-3,4-dihydro-2H-quinolin-1-yl]-6,7-dihydro-4H-pyrazolo[4,3-c]pyridin-1-yl]-1-piperidyl]methyl]-1-piperidyl]-N-[3-(3-chloro-4-cyano-phenoxy)-2,2,4,4-tetramethyl-cyclobutyl]pyrimidine-5-carboxamide]	1 to 10	≤ 0.1
CC(=O)N1CCc2c(c(N3CCCc4cc(-c5cnn(C)c5)c(C(F)F)cc43)nn2C2CCN(C(=O)C3CCN(c4ccc(C(=O)NC5C(C)(C)C(Oc6ccc(C#N)c(Cl)c6)C5(C)C)nn4)CC3)CC2)C1 (stereo not shown) [Compound 114, 6-[4-[4-[5-acetyl-3-[7-(difluoromethyl)-6-(1-methylpyrazol-4-yl)-3,4-dihydro-2H-quinolin-1-yl]-6,7-dihydro-4H-pyrazolo[4,3-c]pyridin-1-yl]piperidine-1-carbonyl]-1-piperidyl]-N-[3-(3-chloro-4-cyano-phenoxy)-2,2,4,4-tetramethyl-cyclobutyl]pyridazine-3-carboxamide]	< 1	≤ 0.1
CC(=O)N1CCc2c(c(N3CCCc4cc(-c5cnn(C)c5)c(C(F)F)cc43)nn2CCCOc2ncc(C(=O)NC3C(C)(C)C(Oc4ccc(C#N)c(Cl)c4)C3(C)C)cn2)C1 (stereo not shown) [Compound 43, 2-[3-[5-acetyl-3-[7-(difluoromethyl)-6-(1-methylpyrazol-4-yl)-3,4-dihydro-2H-quinolin-1-yl]-6,7-dihydro-4H-pyrazolo[4,3-c]pyridin-1-yl]propoxy]-N-[3-(3-chloro-4-cyano-phenoxy)-2,2,4,4-tetramethyl-cyclobutyl]pyrimidine-5-carboxamide]	> 100	> 100
COc1cc(OC2C(C)(C)C(NC(=O)c3ccc(N4CC(OC5CCC(n6nc(N7CCCc8cc(-c9cnn(C)c9)c(C(F)F)cc87)c7c6CCN(C(C)=O)C7)CC5)C4)cc3)C2(C)C)ccc1C#N (stereo not shown) [Compound 343, 4-[3-[4-[5-acetyl-3-[7-(difluoromethyl)-6-(1-methylpyrazol-4-yl)-3,4-dihydro-2H-quinolin-1-yl]-6,7-dihydro-4H-pyrazolo[4,3-c]pyridin-1-yl]cyclohexoxy]azetidin-1-yl]-N-[3-(4-cyano-3-methoxy-phenoxy)-2,2,4,4-tetramethyl-cyclobutyl]benzamide]	< 1	0.1 to 1
COc1cc(OC2C(C)(C)C(NC(=O)c3ccc(N4CCN(CCc5ccc(-c6cc7c(cn6)N(c6nn(C8CCOCC8)c8c6CN(C(C)=O)CC8)CCC7)cn5)CC4)cc3)C2(C)C)ccc1C#N (stereo not shown) [Compound 251, 4-[4-[2-[5-[1-(5-acetyl-1-tetrahydropyran-4-yl-6,7-dihydro-4H-pyrazolo[4,3-c]pyridin-3-yl)-3,4-dihydro-2H-1,7-naphthyridin-6-yl]-2-pyridyl]ethyl]piperazin-1-yl]-N-[3-(4-cyano-3-methoxy-phenoxy)-2,2,4,4-tetramethyl-cyclobutyl]benzamide]	< 1	0.1 to 1

From patent US20250129070A1, “BIFUNCTIONAL ANDROGEN RECEPTOR COMPOUNDS” (priority 2023, published 2025)
